Data published in paper PMC10687260, “1,3-Diphenylureido hydroxamate as a promising scaffold for generation of potent antimalarial histone deacetylase inhibitors” (Scientific Reports, 2023).

Experiments:
Jurkat = test system: Jurkat; parameters: method as in PMID 33668008; conditions: Fig. 1A; cited from earlier work
Namalwa = test system: Namalwa; parameters: method as in PMID 33668008; conditions: Fig. 1A; cited from earlier work
acetylated histone H4 = test: Western blot of acetylated histone H4 in infected erythrocytes; type: cell-based, Plasmodium falciparum; conditions: 10 × IC50 for 4 h, trophozoites, vs DMSO
Description: (§1) Figure 5 Hydroxamic acid derivatives as potent in vitro PfHDAC1 inhibitors. […]. Enzyme activity was calculated by normalizing the data against the DMSO treated samples and discounting the background. Data are presented as shown above, with mean ± S.D. (n = 2). […]. Comparison of group/concentration against the DMSO control is represented as † for P < 0.0001. […]. Numbers on side of the bands represent the predicted mass (kDa) for each protein. (C,D) Band quantification of histone H3 (C) and H4 (D), respectively, normalizing their acetylated detection against their unmodified version. Differences to this value were analyzed by one way ANOVA using the Dunnett’s post correction, comparing each group against the DMSO control, as rank tests where P values are explicitly depicted.
(§2) Western Blot analysis. […]. Proteins were transferred to PVDF membranes, 5% non-fat dry milk in TBS with Tween 20 (0.1%) was used as blocking agent for 1 h at room temperature. After, incubated with the antibodies overnight at 4 °C (Acetyl Histone H3 Lys9 C5B11 Cell Signaling, Acetyl Histone H4 Lys16 E2B8W Cell Signaling, Histone H3 96C10 Cell Signaling and Histone H4 D2X4V Cell Signaling). For the analysis of protein acetylation levels, the membranes were stripped and re-probed with the corresponding anti-total protein. Mouse monoclonal anti-α-Tubulin (B512 Sigma-Aldrich) was used as loading control. Detection was performed by enhanced chemiluminescence using horseradish peroxidase-conjugated secondary antibodies (Vector Laboratories, Burlingame, CA, USA) and SuperSignal TM West Pico PLUS Chemiluminescent substrate kit (Thermo Scientific). Images were acquired using ChemiDoc TM Imaging System (BioRad Laboratories, CA, USA). Quantitative densitometry was carried out using ImageLab software (Bio-Rad Laboratories, CA, USA). The volume density of the chemiluminescent bands was calculated as an integrated optical density × mm^2 after background correction from each independent experiment (N = 3).

P. falciparum Dd2 = test: Antiplasmodial SYBR Green I proliferation assay, P. falciparum Dd2; type: cell-based; conditions: Plasmodium falciparum, DD2; multidrug/CQ-resistant strain; read-out: IC50 P. falciparum Dd2
Source text: Antiplasmodial activity against P. falciparum 3D7 (A, C and E) and P. falciparum Dd2 (B, D, F). […] Curves were plotted using non-linear regression based on means from three independent experiments measured in triplicate. Error bars indicate standard deviation, whose values are provided in the respective table.
Plasmodium falciparum culture and antiplasmodial activity. […] Development, parasitaemia, and morphology of parasites were monitored by light microscopy of thin blood smears stained according to the Romanowsky method (Panótico Rápido staining kit; Laborclin, Pinhais, Paraná, Brazil). […] Fresh 0^+ blood was generously provided by “Hospital Novo Atibaia” (Atibaia, SP, Brazil), and approved by the ethics committee at ICB-USP. The antiplasmodial effect of all compounds was validated against P. falciparum 3D7 strain conducting SYBR Green I (Invitrogen) drug assays as previously reported[30],[46] as a modification of the original procedure. […] Parasite proliferation was measured by the DNA load via fluorescence, using 100 μL of a lysis buffer with SYBR Green I (0.02% v/v) and incubated for 1 h at room temperature in the dark. […] Focal and gain adjustment was performed using the non-treated controls (highest expected fluorescence signal). Data was acquired via the CLARIOstar (V5.20) and MARS software, manually scaled to 0–100%, and plotted using GraphPad Prism (v9.5.2 for Windows, GraphPad Software, La Jolla California USA, www.graphpad.com). Non-treated parasites, the highest solvent concentration on parasites, CQ on parasites, and the highest drug concentration in the medium were used as controls for maximal growth, solvent control, positive biological control, and native drug fluorescence, respectively.

acetylated histone H3 = test: Western blot of acetylated histone H3 in infected erythrocytes; type: cell-based, Plasmodium falciparum; conditions: 10 × IC50 for 4 h, trophozoites, vs DMSO
Description: as §1, §2

SMILES	IC50 (Jurkat) [µM]	IC50 (Namalwa) [µM]	Acetylated-H4 level (normalised to unmodified H4) (acetylated histone H4)	IC50 (P. falciparum Dd2) [µM]	Acetylated-H3 level (normalised to unmodified H3) (acetylated histone H3)
O=C(Nc1ccccc1)Nc1ccc(C(=O)NO)cc1 [Compound 8a, N-hydroxy-4-(3-phenylureido)bezamide]	2.5	0.53	–	–	–
COc1ccc(NC(=O)Nc2ccc(/C=C/C(=O)NO)cc2)cc1 [Compound 6c, (E)-N-hydroxi-3-(4-(3-(4-methoxyphenyl)ureido)phenyl)acrylamide]	–	–	significant elevation	–	–
COc1ccc(NC(=O)Nc2ccc(C(=O)NO)cc2)cc1 [Compound 8c, N-hydroxy-4-(3–4(-methoxyphenyl)ureido)benzamide]	–	–	significant elevation	0.8	two-fold increase
COc1ccc(NC(=O)Nc2ccc(CCC(=O)NO)cc2)cc1 [Compound 7c, N-hydroxy-3-(4-(3-(4-methoxyphenyl)ureido)phenyl)propanamide]	–	–	–	–	two-fold increase
